Converted amounts (≈) assume the structure as drawn. The source made the active and inactive calls. The calls are words filed in the database; no cut-off is given here.
Tests used:
Assay type in all cases: functional
Escherichia coli = assay: Antibacterial activity against Escherichia coli MTCC 40 by liquid dilution technique
Staphylococcus aureus = assay: Antibacterial activity against Staphylococcus aureus MTCC 96 by liquid dilution technique
Pseudomonas aeruginosa = assay: Antibacterial activity against Pseudomonas aeruginosa MTCC 424 by liquid dilution technique
Bacillus subtilis = assay: Antibacterial activity against Bacillus subtilis MTCC 619 by liquid dilution technique
Aspergillus niger = assay: Antifungal activity against Aspergillus niger MTCC 1344 by liquid dilution technique
Fusarium oxysporum = assay: Antifungal activity against Fusarium oxysporum by liquid dilution technique

SMILES | MIC (Escherichia coli) | MIC (Staphylococcus aureus) | MIC (Pseudomonas aeruginosa) | MIC (Bacillus subtilis) | MIC (Aspergillus niger) | MIC (Fusarium oxysporum)
Cc1ccc(/C=C/c2nc3ccccc3c(=O)n2-c2nnc(-c3ccc(N(C)C)cc3)o2)cc1 | inactive | inactive | inactive | inactive | inactive | inactive
O=c1c2ccccc2nc(/C=C/c2ccccc2)n1-c1nnc(-c2ccccc2)o1 | 76 µg/mL (≈ 194 µM) | 82 µg/mL (≈ 209 µM) | 90 µg/mL (≈ 229 µM) | 80 µg/mL (≈ 204 µM) | 143 µg/mL (≈ 364 µM) | 152 µg/mL (≈ 387 µM)
Cc1nc2ccccc2c(=O)n1-c1nnc(-c2ccc(N(C)C)cc2)o1 | 84 µg/mL (≈ 242 µM) | 88 µg/mL (≈ 253 µM) | 95 µg/mL (≈ 273 µM) | 88 µg/mL (≈ 253 µM) | 170 µg/mL (≈ 489 µM) | 179 µg/mL (≈ 515 µM)
CCn1cc(C(=O)O)c(=O)c2cc(F)c(N3CCNCC3)cc21 [NORFLOXACIN] | 4 µg/mL (≈ 12.5 µM) | 6 µg/mL (≈ 18.8 µM) | 8 µg/mL (≈ 25.1 µM) | 5 µg/mL (≈ 15.7 µM) |  | 
Cc1ccc(/C=C/c2nc3ccccc3c(=O)n2-c2nnc(-c3ccc(C)cc3)o2)cc1 | inactive | inactive | inactive | inactive | inactive | inactive
Cc1nc2ccccc2c(=O)n1-c1nnc(-c2ccccc2)o1 | 120 µg/mL (≈ 394 µM) | 130 µg/mL (≈ 427 µM) | 135 µg/mL (≈ 444 µM) | 127 µg/mL (≈ 417 µM) | 185 µg/mL (≈ 608 µM) | 192 µg/mL (≈ 631 µM)
COc1ccc(-c2nnc(-n3c(/C=C/c4ccc(Cl)cc4)nc4ccccc4c3=O)o2)cc1 | inactive | inactive | inactive | inactive | inactive | inactive
COc1ccc(-c2nnc(-n3c(/C=C/c4ccccc4)nc4ccccc4c3=O)o2)cc1 | inactive | inactive | inactive | inactive | inactive | inactive
Cc1ccc(/C=C/c2nc3ccccc3c(=O)n2-c2nnc(-c3ccc(Cl)cc3)o2)cc1 | inactive | inactive | inactive | inactive | inactive | inactive
Cc1ccc(-c2nnc(-n3c(/C=C/c4ccccc4)nc4ccccc4c3=O)o2)cc1 | 81 µg/mL (≈ 199 µM) | 85 µg/mL (≈ 209 µM) | 92 µg/mL (≈ 226 µM) | 83 µg/mL (≈ 204 µM) | 145 µg/mL (≈ 357 µM) | 156 µg/mL (≈ 384 µM)
CN(C)c1ccc(-c2nnc(-n3c(/C=C/c4ccccc4)nc4ccccc4c3=O)o2)cc1 | 79 µg/mL (≈ 181 µM) | 88 µg/mL (≈ 202 µM) | 94 µg/mL (≈ 216 µM) | 83 µg/mL (≈ 191 µM) | 155 µg/mL (≈ 356 µM) | 166 µg/mL (≈ 381 µM)
COc1ccc(-c2nnc(-n3c(C)nc4ccccc4c3=O)o2)cc1 | 80 µg/mL (≈ 239 µM) | 90 µg/mL (≈ 269 µM) | 100 µg/mL (≈ 299 µM) | 85 µg/mL (≈ 254 µM) | 165 µg/mL (≈ 494 µM) | 175 µg/mL (≈ 523 µM)
Cc1nc2ccccc2c(=O)n1-c1nnc(-c2ccc(Cl)cc2)o1 | 82 µg/mL (≈ 242 µM) | 89 µg/mL (≈ 263 µM) | 98 µg/mL (≈ 289 µM) | 84 µg/mL (≈ 248 µM) | 172 µg/mL (≈ 508 µM) | 184 µg/mL (≈ 543 µM)
Cc1ccc(-c2nnc(-n3c(/C=C/c4ccc(Cl)cc4)nc4ccccc4c3=O)o2)cc1 | inactive | inactive | inactive | inactive | inactive | inactive
CN(C)c1ccc(-c2nnc(-n3c(/C=C/c4ccc(Cl)cc4)nc4ccccc4c3=O)o2)cc1 | inactive | inactive | inactive | inactive | inactive | inactive
Cc1ccc(-c2nnc(-n3c(C)nc4ccccc4c3=O)o2)cc1 | 115 µg/mL (≈ 361 µM) | 127 µg/mL (≈ 399 µM) | 138 µg/mL (≈ 434 µM) | 122 µg/mL (≈ 383 µM) | 165 µg/mL (≈ 518 µM) | 180 µg/mL (≈ 565 µM)
O=c1c2ccccc2nc(/C=C/c2ccc(Cl)cc2)n1-c1nnc(-c2ccccc2)o1 | inactive | inactive | inactive | inactive | inactive | inactive
Cc1ccc(/C=C/c2nc3ccccc3c(=O)n2-c2nnc(-c3ccccc3)o2)cc1 | inactive | inactive | inactive | inactive | inactive | inactive
Clc1ccccc1C(c1ccccc1)(c1ccccc1)n1ccnc1 [CLOTRIMAZOLE] |  |  |  |  | 6 µg/mL (≈ 17.4 µM) | 8 µg/mL (≈ 23.2 µM)
O=c1c2ccccc2nc(/C=C/c2ccc(Cl)cc2)n1-c1nnc(-c2ccc(Cl)cc2)o1 | inactive | inactive | inactive | inactive | inactive | inactive
O=c1c2ccccc2nc(/C=C/c2ccccc2)n1-c1nnc(-c2ccc(Cl)cc2)o1 | 70 µg/mL (≈ 164 µM) | 79 µg/mL (≈ 185 µM) | 86 µg/mL (≈ 201 µM) | 75 µg/mL (≈ 176 µM) | 130 µg/mL (≈ 305 µM) | 141 µg/mL (≈ 330 µM)
COc1ccc(-c2nnc(-n3c(/C=C/c4ccc(C)cc4)nc4ccccc4c3=O)o2)cc1 | inactive | inactive | inactive | inactive | inactive | inactive

— ChEMBL document CHEMBL3045957, “Synthesis and antimicrobial activity of some new 3[5-(4-substituted) phenyl-1,3,4-oxadiazole-2yl]-2- styrylquinazoline-4(3H)-ones” (2008)
